The source of these data is ChEMBL document CHEMBL1149399, “Dual inhibitors of thymidylate synthase and dihydrofolate reductase as antitumor agents: design, synthesis, and biological evaluation of classical and nonclassical pyrrolo[2,3-d]pyrimidine antifolates(1)” (J Med Chem, 2006).

Where only a bound is given, the exact number is not on record here.

What is called EC50 is the concentration that produces a half-maximal response. A word on the IC50: it is the point on the concentration scale where inhibition reaches its midpoint. The term inhibition denotes the share of the control response that was lost under treatment.

In data set [1] the test system is CCRF-CEM. The experiment in a line: Inhibition of growth in CCRF-CEM cells. It counts as functional, cell-based. Conditions: Homo sapiens; call rule not given here.
Data set [2] has as its system R1-CCRF-CEM. Briefly: Inhibition of growth in MTX-resistant CCRF-CEM cell line, R1 cells. It counts as functional, cell-based. The settings on record: Homo sapiens.
Data set [3] relates to R2-CCRF-CEM. Briefly: Inhibition of growth in MTX-resistant CCRF-CEM cell line, R2 cells. Format: functional, cell-based. Conditions: Homo sapiens.
Data set [4] deals with CCRF-CEM. The experiment in a line: Inhibition of growth in MTX-resistant CCRF-CEM cell line, R30dm cells. It counts as functional, cell-based. The settings on record: Homo sapiens.
In data set [5] the test system is CCRF-CEM. Briefly: Protection against growth inhibition of CCRF-CEM cells in presence of 0.1 uM of Leucovorin at concentrations that inhibited the growth by […]%. Format: functional, Homo sapiens. Further details: scale not given: the % may be the effect or the level left.
Data set [6] addresses Thymidylate synthase (Escherichia coli, UniProt C3SWJ7). Briefly: Inhibition of TS from Escherichia coli.
Data set [7] is described as follows: Inhibition of DHFR from Escherichia coli.
For data set [8], the system named is CCRF-CEM. The experiment in a line: Protection against growth inhibition of CCRF-CEM cells in presence of 10 uM of Leucovorin at concentrations that inhibited the growth by 95%. It counts as functional, Homo sapiens. Further details: scale not given: the % may be the effect or the level left.
Data set [9] relates to CCRF-CEM. The experiment in a line: Protection against growth of CCRF-CEM cells in presence of 10 uM Hypoxanthine and 10 uM Deoxycytidine, relative to control. Format: functional, Homo sapiens.
The subject of data set [10] is CCRF-CEM. The experiment in a line: Protection against growth of CCRF-CEM cells in presence of 5 uM Thymidine and 10 uM Deoxycytidine, relative to control. It counts as functional, Homo sapiens.
In data set [11] the test system is CCRF-CEM. The experiment in a line: Protection against growth of CCRF-CEM cells in presence of 5 uM Thymidine, 10 uM Deoxycytidine and 10 uM Hypoxanthine, relative to control. Format: functional, Homo sapiens.
Data set [12] has as its system CCRF-CEM. Briefly: Protection against growth of CCRF-CEM cells in presence of 10 uM Hypoxanthine, relative to control. Format: functional, Homo sapiens.
Data set [13] has as its system CCRF-CEM. The experiment in a line: Protection against growth of CCRF-CEM cells in presence of 10 uM Deoxycytidine, relative to control. It counts as functional, Homo sapiens.
Data set [14] has as its system CCRF-CEM. Briefly: Protection against growth of CCRF-CEM cells in presence of 5 uM Thymidine, relative to control. It counts as functional, Homo sapiens.
For data set [15], the target named is T1, Thymidylate synthase (Homo sapiens, UniProt P04818).
Target sequence in this assay (P04818 whole entry): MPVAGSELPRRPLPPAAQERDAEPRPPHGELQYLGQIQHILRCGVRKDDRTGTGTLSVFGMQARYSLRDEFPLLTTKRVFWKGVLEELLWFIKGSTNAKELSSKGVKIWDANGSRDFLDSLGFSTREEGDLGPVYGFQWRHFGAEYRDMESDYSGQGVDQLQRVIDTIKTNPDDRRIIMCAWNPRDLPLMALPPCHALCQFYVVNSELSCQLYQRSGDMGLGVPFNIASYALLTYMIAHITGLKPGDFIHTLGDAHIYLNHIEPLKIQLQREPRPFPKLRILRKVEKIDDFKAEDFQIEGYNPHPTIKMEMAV
The target in data set [16] is T2, Dihydrofolate reductase (Homo sapiens, UniProt P00374).
T2 sequence (P00374 whole entry): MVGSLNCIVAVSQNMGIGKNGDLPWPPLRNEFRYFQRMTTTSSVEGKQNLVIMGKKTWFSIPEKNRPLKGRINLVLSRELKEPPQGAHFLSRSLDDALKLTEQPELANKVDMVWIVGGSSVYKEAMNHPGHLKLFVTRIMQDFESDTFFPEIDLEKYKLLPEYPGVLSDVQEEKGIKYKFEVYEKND

Data set [17] addresses Thymidylate synthase (Escherichia coli) (UniProt C3SWJ7). The experiment in a line: Inhibition of TS from Escherichia coli at >2.0*10-5 nM.
Data set [18] concerns the target T1, Thymidylate synthase. Briefly: Inhibition of recombinant human TS at >2.2*10-5 nM.
Target sequence in this assay (P04818 2-313 limits assumed): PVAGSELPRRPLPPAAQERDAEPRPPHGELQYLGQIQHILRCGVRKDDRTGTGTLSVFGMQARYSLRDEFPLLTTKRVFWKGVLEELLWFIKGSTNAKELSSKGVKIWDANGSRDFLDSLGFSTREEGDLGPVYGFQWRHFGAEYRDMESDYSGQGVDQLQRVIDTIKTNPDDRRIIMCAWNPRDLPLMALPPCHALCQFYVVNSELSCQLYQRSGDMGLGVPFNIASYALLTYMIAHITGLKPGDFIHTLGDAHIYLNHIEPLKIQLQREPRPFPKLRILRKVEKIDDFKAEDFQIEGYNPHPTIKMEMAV
Data set [19] has as its target Thymidylate synthase (Escherichia coli) (UniProt C3SWJ7). Briefly: Inhibition of TS from Escherichia coli at >2.7*10-5 nM.
In data set [20] the target is T3, Dihydrofolate reductase (Homo sapiens) (UniProt P00374).
T3 sequence (whole entry): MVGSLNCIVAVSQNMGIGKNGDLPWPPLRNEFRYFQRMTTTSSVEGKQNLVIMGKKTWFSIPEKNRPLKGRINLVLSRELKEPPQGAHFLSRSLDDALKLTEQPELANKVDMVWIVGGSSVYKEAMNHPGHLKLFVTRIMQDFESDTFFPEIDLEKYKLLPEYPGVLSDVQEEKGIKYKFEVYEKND
Briefly: Inhibition of recombinant human DHFR at >32 uM.

Data set [21] addresses T3, Dihydrofolate reductase (Homo sapiens). The experiment in a line: Inhibition of recombinant human DHFR at >29 uM.
Data set [22] deals with Thymidylate synthase (Escherichia coli) (UniProt C3SWJ7). Briefly: Inhibition of TS from Escherichia coli at >3.2*10-5 nM.
Chain of Thymidylate synthase (Escherichia coli) (C3SWJ7 1-264): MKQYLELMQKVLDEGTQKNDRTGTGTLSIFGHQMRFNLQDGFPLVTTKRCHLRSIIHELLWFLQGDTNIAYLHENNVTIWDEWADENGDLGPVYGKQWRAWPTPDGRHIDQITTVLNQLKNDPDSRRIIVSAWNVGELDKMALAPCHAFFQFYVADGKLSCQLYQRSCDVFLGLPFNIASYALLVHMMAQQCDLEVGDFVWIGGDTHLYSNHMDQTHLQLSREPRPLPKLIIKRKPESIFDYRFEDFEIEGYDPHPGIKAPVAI
The target of data set [23] is T1, Thymidylate synthase. The experiment in a line: Inhibition of recombinant human TS at >3.2*10-5 nM.
Target sequence in this assay (P04818 2-313 limits assumed): as the sequence (P04818 2-313 limits assumed) above
In data set [24] the target is Thymidylate synthase (Escherichia coli) (UniProt C3SWJ7). Briefly: Inhibition of TS from Escherichia coli at >2.3*10-5 nM.
Data set [25] shares this target. The experiment in a line: Inhibition of TS from Escherichia coli at >2.6*10-5 nM.
Data set [26] addresses T3, Dihydrofolate reductase (Homo sapiens). The experiment in a line: Inhibition of recombinant human DHFR at >31 uM.
Data set [27] addresses Thymidylate synthase (Escherichia coli) (UniProt C3SWJ7). The experiment in a line: Inhibition of TS from Escherichia coli at >3.1*10-5 nM.
Data set [28] has as its target T1, Thymidylate synthase. The experiment in a line: Inhibition of recombinant human TS at >3.1*10-5 nM.
Target sequence in this assay (P04818 2-313 limits assumed): as above
Data set [29] has as its target Thymidylate synthase (Escherichia coli) (UniProt C3SWJ7). The experiment in a line: Inhibition of TS from Escherichia coli at >3.0*10-5 nM.
For data set [30] the target is unchanged. Briefly: Inhibition of TS from Escherichia coli at >2.2*10-5 nM.
For data set [31], the target named is T3, Dihydrofolate reductase (Homo sapiens). Briefly: Inhibition of recombinant human DHFR at >26 uM.
Substrate in data set [32]: CCc1[nH]c2nc(N)nc(O)c2c1Sc1ccc(C(=O)N[C@@H](CCC(=O)O)C(=O)O)cc1
Briefly: Binding with human cytosolic FPGS at <= 100 uM.

Chain of Thymidylate synthase (Escherichia coli, UniProt C3SWJ7) (C3SWJ7 whole entry): as the sequence (C3SWJ7 1-264) above

Turning to `CCc1[nH]c2nc(N)nc(O)c2c1Sc1ccc(C(=O)N[C@@H](CCC(=O)O)C(=O)O)cc1`, the EC50 in data set [1] is 2700 nM; in data set [2] it was 7050 nM; in data set [3], 12500 nM; in [4] it was 2900 nM. Further, the Activity was found to be 95% in data set [5]; 75% in [8]; 16% in [9]; 106% in [10]; 105% in data set [11]; 16% in data set [12]. Further, the Activity in data set [13] was found to be 18%; in [14], 106%. In addition, the IC50 in data set [6] was 540 nM; in [7] it was > 21000 nM; in data set [15], 90 nM; in data set [16], 420 nM.
For the molecule `CCc1[nH]c2nc(N)nc(O)c2c1Sc1cc(C(F)(F)F)cc(C(F)(F)F)c1`, the figures for the inhibition in data set [17] and in data set [18] were 0% and 18%, respectively.
With `CCc1[nH]c2nc(N)nc(O)c2c1Sc1ccc(F)cc1`, the inhibition in [19] and in data set [20] was 0% in each case. This molecule also showed an IC50 in data set [15] of 2700 nM.
The molecule `CCc1[nH]c2nc(N)[nH]c(=O)c2c1Sc1cccc2ccccc12` registered an IC50 in data set [15] of 5600 nM.
As to `CCc1[nH]c2nc(N)nc(O)c2c1Sc1ccc([N+](=O)[O-])cc1`, the IC50 is 24000 nM in data set [6] and 240 nM in data set [15]. Further, the inhibition in data set [21] is 33%.
`CCc1[nH]c2nc(N)nc(O)c2c1Sc1cccc(OC)c1`: the inhibition in [22] is 5%; in data set [23] it was 15%.
`CCc1[nH]c2nc(N)[nH]c(=O)c2c1Sc1c(C)cccc1C` showed an IC50 in [15] of 26000 nM.
Take `CCc1[nH]c2nc(N)nc(O)c2c1Sc1ccc(Cl)c(Cl)c1`: the inhibition in data set [24] is 41%.
With `CCc1[nH]c2nc(N)nc(O)c2c1Sc1c(C)cccc1C`, the inhibition in data set [25] and in data set [26] was 0% in each case.
On to `CCc1[nH]c2nc(N)nc(O)c2c1Sc1ccc(Cl)cc1`, for which the values for the inhibition in data set [27] and in data set [28] were 27% and 25%, respectively.
On to `CN(Cc1cnc2nc(N)nc(N)c2n1)c1ccc(C(=O)N[C@@H](CCC(=O)O)C(=O)O)cc1` [METHOTREXATE], for which the figures for the EC50 in data set [2] and in [3] were 565 nM and 1700 nM, respectively. The Activity in data set [5] turned out to be 10%; in [9] it was 11%; in [10], 10%; in [11], 99%; in data set [12] it was 101%; in data set [13] it was 10%. The Activity in [14] was 44%.
In turn, `CCc1[nH]c2nc(N)nc(O)c2c1Sc1cccc(Br)c1` yielded an inhibition in [24] of 10%. In data set [15], the IC50 is 1100 nM.
In turn, `CCc1[nH]c2nc(N)nc(O)c2c1Sc1cccc2ccccc12` displayed an inhibition in data set [29] of 15%.
Regarding `Cc1[nH]c2nc(N)[nH]c(=O)c2c1Sc1ccc(C(=O)N[C@@H](CCC(=O)O)C(=O)O)cc1`, the results for the EC50 in data set [1] and in data set [4] were 450 nM and 810 nM, respectively. Half-maximal inhibition in data set [7] (IC50) was put at 21000 nM.
Molecule `CCc1[nH]c2nc(N)nc(O)c2c1Sc1ccc2ccccc2c1` gave a 50% inhibitory concentration (IC50) in data set [15] of 5600 nM.
For the molecule `CCc1[nH]c2nc(N)[nH]c(=O)c2c1Sc1ccc(Cl)c(Cl)c1`, in data set [15], the midpoint of inhibition, the IC50, lay at 230 nM.
For `CCc1[nH]c2nc(N)nc(O)c2c1Sc1ccc(Br)cc1`, the inhibition in data set [30] amounted to 15%; in [31] it was 14%. The same molecule returned an IC50 in data set [15] of 1000 nM.
In data set [22], `CCc1[nH]c2nc(N)nc(O)c2c1Sc1ccc(OC)cc1` returned an inhibition of 22%. In addition, the IC50 in [15] is 16000 nM.
Take `CCc1[nH]c2nc(N)nc(O)c2c1Sc1cccc(Cl)c1`: the inhibition was 13% in data set [25] and 0% in data set [26]. For the same molecule, in data set [15], the IC50 was determined as 2600 nM.

B1: Folylpolyglutamate synthase, mitochondrial (Homo sapiens), Q05932 (protein)
chain: MSRARSHLRAALFLAAASARGITTQVAARRGLSAWPVPQEPSMEYQDAVRMLNTLQTNAGYLEQVKRQRGDPQTQLEAMELYLARSGLQVEDLDRLNIIHVTGTKGKGSTCAFTECILRSYGLKTGFFSSPHLVQVRERIRINGQPISPELFTKYFWRLYHRLEETKDGSCVSMPPYFRFLTLMAFHVFLQEKVDLAVVEVGIGGAYDCTNIIRKPVVCGVSSLGIDHTSLLGDTVEKIAWQKGGIFKQGVPAFTVLQPEGPLAVLRDRAQQISCPLYLCPMLEALEEGGPPLTLGLEGEHQRSNAALALQLAHCWLQRQDRHGAGEPKASRPGLLWQLPLAPVFQPTSHMRLGLRNTEWPGRTQVLRRGPLTWYLDGAHTASSAQACVRWFRQALQGRERPSGGPEVRVLLFNATGDRDPAALLKLLQPCQFDYAVFCPNLTEVSSTGNADQQNFTVTLDQVLLRCLEHQQHWNHLDEEQASPDLWSAPSPEPGGSASLLLAPHPPHTCSASSLVFSCISHALQWISQGRDPIFQPPSPPKGLLTHPVAHSGASILREAAAIHVLVTGSLHLVGGVLKLLEPALSQ
As for B1, in data set [32], the Km entry is “Not Active”.
